In ChEMBL document CHEMBL3817789 (2016):
≈ marks a conversion by molar mass, not a printed value.

Assays:
Assay type in all cases: functional
[1] = test system: Staphylococcus aureus; assay: Antibacterial activity against methicillin-sensitive Staphylococcus aureus isolate SDS15016 after 24 hrs by broth microdilution method; settings: isolate SDS15016, 24 h
[2] = test system: Candida albicans; assay: Antifungal activity against clinical isolates of Candida albicans SC5314 after 48 hrs by broth microdilution method; settings: SC5314, 48 h
[3] = test system: Staphylococcus aureus; assay: Antibacterial activity against methicillin-resistant Staphylococcus aureus isolate SDSM1503 after 24 hrs by broth microdilution method; settings: isolate SDSM1503, 24 h

SMILES | MIC [1] [µg/mL] | MIC80 [2] [µg/mL] | MIC [3] [µg/mL]
Oc1cc2ccc1-c1c(ccc(Br)c1O)CCc1ccc(cc1)Oc1cc(cc(Br)c1O)CC2 | 8 (≈ 13.7 µM) | > 64 | 16 (≈ 27.5 µM)
Oc1ccc2cc1Oc1ccc(cc1)CCc1c(Br)ccc(O)c1-c1cc(Br)c(cc1O)CC2 | 2 (≈ 3.43 µM) | 8 (≈ 13.7 µM) | 4 (≈ 6.87 µM)
Oc1cc2ccc1-c1c(O)cccc1CCc1ccc(cc1)Oc1cc(cc(O)c1O)CC2 | 2 (≈ 4.54 µM) | > 64 | 8 (≈ 18.2 µM)
Oc1ccc2cc1Oc1ccc(cc1)CCc1cccc(O)c1-c1cc(Br)c(cc1O)CC2 | 2 (≈ 3.97 µM) | > 64 | 4 (≈ 7.95 µM)
OC(Cn1cncn1)(Cn1cncn1)c1ccc(F)cc1F [FLUCONAZOLE] | – | 2 (≈ 6.53 µM) | –
CC(C)(O/N=C(\C(=O)N[C@@H]1C(=O)N2C(C(=O)[O-])=C(C[n+]3ccccc3)CS[C@H]12)c1csc(N)n1)C(=O)O [CEFTAZIDIME] | 4 (≈ 7.32 µM) | – | > 128
Cc1onc(-c2ccccc2)c1C(=O)N[C@@H]1C(=O)N2[C@@H]1SC(C)(C)[C@@H]2C(=O)[O-].[Na+] | 8 | – | > 128
CO/N=C(\C(=O)N[C@@H]1C(=O)N2C(C(=O)O)=C(COC(C)=O)CS[C@H]12)c1csc(N)n1 [CEFOTAXIME] | 4 (≈ 8.78 µM) | – | > 128
Oc1cc2ccc1Oc1cc(ccc1O)CCc1ccc(c(O)c1)-c1c(O)cccc1CC2 | 2 (≈ 4.54 µM) | > 64 | 4 (≈ 9.08 µM)
COc1cccc2c1-c1ccc(cc1O)CCc1ccc(O)c(c1)Oc1ccc(cc1)CC2 | 2 (≈ 4.56 µM) | > 64 | 4 (≈ 9.12 µM)
Oc1ccc2cc1Oc1ccc(cc1)CCc1c(Br)ccc(O)c1-c1ccc(c(Br)c1O)CC2 | 2 (≈ 3.43 µM) | 8 (≈ 13.7 µM) | 4 (≈ 6.87 µM)
Oc1ccc2cc1Oc1ccc(cc1)CCc1ccc(Br)c(O)c1-c1ccc(c(Br)c1O)CC2 | 4 (≈ 6.87 µM) | > 64 | 16 (≈ 27.5 µM)
Oc1cc2ccc1Oc1cc(cc(O)c1O)CCc1ccc(c(O)c1)-c1c(O)cccc1CC2 | 8 (≈ 17.5 µM) | > 64 | 16 (≈ 35 µM)
Oc1ccc2cc1Oc1ccc(cc1)CCc1cccc(O)c1-c1ccc(c(Br)c1O)CC2 | 2 (≈ 3.97 µM) | > 64 | 8 (≈ 15.9 µM)
Oc1ccc2cc1Oc1ccc(cc1)CCc1ccc(Br)c(O)c1-c1cc(Br)c(cc1O)CC2 | 2 (≈ 3.43 µM) | > 64 | 4 (≈ 6.87 µM)
Cc1onc(-c2ccccc2Cl)c1C(=O)N[C@@H]1C(=O)N2[C@@H]1SC(C)(C)[C@@H]2C(=O)O [CLOXACILLIN] | 0.5 (≈ 1.15 µM) | – | > 128
COc1cc2ccc1-c1c(O)cccc1CCc1ccc(cc1)Oc1cc(ccc1O)CC2 | 2 (≈ 4.56 µM) | > 64 | 8 (≈ 18.2 µM)
